Reference: patent US6667040B2, “Bovine footrot treatment and prevention” (University Technologies International, Inc., priority 1997, dated 2003)

Key:
Format in all cases: cell-based
[1] = system: Isolates of Porphyromonas levii; test: Penicillin G susceptibility of Porphyromonas levii isolates
[2] = system: Prevotella intermedia (14-7); test: Penicillin G disc diffusion susceptibility test
[3] = system: Prevotella intermedia (5-2); test: Penicillin G disc diffusion susceptibility test; details: with regrowth
[4] = system: Bacteroides fragilis (7-6); test: Penicillin G disc diffusion susceptibility test
[5] = system: Prevotella intermedia (8-2); test: Penicillin G disc diffusion susceptibility test; details: with regrowth
[6] = disc with 10 units penicillin G

## CC1(C)S[C@@H]2[C@H](NC(=O)Cc3ccccc3)C(=O)N2[C@H]1C(=O)O [penicillin G]
[1]
  susceptibility to penicillin G: sensitive
[2]; disc with 2 units penicillin G
  P2 zone of inhibition: 34 (with mm
[2]; disc with 2 units penicillin G, regrowth around the disc
  regrowth within P2 zone of inhibition: 22 mm regrowth)
[2]; [6]
  P10 zone of inhibition: 38 mm
[2]; disc with 10 units penicillin G, regrowth around the disc
  regrowth within P10 zone of inhibition: 23 mm
[3]; disc with 2 units penicillin G
  P2 zone of inhibition: 22 mm
[3]; [6]
  P10 zone of inhibition: 28 (with regrowth) mm
[4]; disc diffusion
  susceptibility to penicillin: clearly resistant
[4]; disc with 2 units penicillin G
  P2 zone of inhibition: 0 mm
[4]; [6]
  P10 zone of inhibition: 0 mm
[5]; disc with 2 units penicillin G
  P2 zone of inhibition: 27 mm
[5]; [6]
  P10 zone of inhibition: 35 (with regrowth) mm
